According to patent publication US7294715B2, “Aporphine and oxoaporphine compounds and pharmaceutical use thereof” (Lotus Pharmaceutical Co., Ltd., priority 2003, dated 2007):
Marks after values point to notes of the source that are not given here.

Assays:
MCAO rats = experiment: Middle cerebral artery occlusion (MCAO) cerebral ischemia lesions in rats; type: in vivo, rat; settings: for Infarcted Volume (X ± SEM mm^3): vehicle D.W. 214.75 ± 26.37
Source text: The same effects of preventing the ischemia-reperfusion damages with aporphine and oxoaporphine compounds also found in the other organs, such as brain. After Compound 16 or Compound 21, which is a compound of Formula B (where R1, R2, R5, R6 are OMe, R3, R4, R7 are H) was administrated to male Sprague Dawley rats, the effects of test compounds on the artery occlusive cerebral ischemia in the rats were monitored. First, permanent brain ischemia was induced by middle cerebral artery occlusion (MCAO) in the rats. At 0, 6, 24, 48, and 54 hours after the formation of middle cerebral artery occlusion (MCAO), Group I (i.e., the control group) animals were given the solvent (100% DMSO) (1 ml/kg, i.p.); Group II (i.e., the control group) animals were given the distilled water (D.W.) (1 ml/kg, i.p.);Group III animals (NCM-121) were given Compound 16 (1.5 mg/kg, i.p.); Group IV animals (NCM-124) were given Compound 21 (1.7 mg/kg, i.p); Group V animals were given MK-801 (0.3 mg/kg, i.p.), an antagonist of the N-methyl-D-aspartic acid (NMDA) receptor. There were ten rats in each group. Four days after the formation of MCAO, all the rats were sacrificed. Brain sections were made and stained with 2% cresol purple. The areas and volumes of cerebral ischemia lesions in each section were recorded.

[1] = test system: Langendorff perfused rat hearts; experiment: Coronary flow in Langendorff perfused rat hearts; settings: FIG. 3
Protocol: Adult male Wistar rats weighing 275-325 g, were intraperitoneally anesthetized with sodium pentobarbital (50 mg·kg^−1) and given heparin (300 Ukg·kg^−1) by the same route. Hearts were rapidly excised and immersed in 37° C. perfusion medium. The aorta was cannulated and retrograde-perfused at 80 mmHg with Tyrode's solution containing 120 mM NaCl, 25 mM NaHCO3, 3 mM KCl, 1.2 mM NaH2PO4, 2.5 mM CaCl2, 1.2 mM MgCl2, and […] 5.5 mM glucose. The perfusate was equilibrated with 95% O2, 5% CO2 at 37° C. Perfusion pressure was monitored using a MLT844/D pressure transducer (Capto, Horten, Norway) connected to a PowerLab (ADInstruments, Castle Hill, Australia). The coronary effluent was collected for the measurement of coronary flow.

[2] = test system: regional myocardial ischemia and reperfusion (LAD occlusion); experiment: Infarct size in a rat model of regional myocardial ischemia and reperfusion; type: in vivo; settings: rat, LAD occlusion 25 min, reperfusion 2 h; 0.5 mg/kg i.v.; vehicle 58±2%; P<0.05 vs vehicle
Protocol: Seventy two male Wistar rats (215-300 g, Charles River, Margate, U.K.) were anaesthetized with thiopentone sodium (Intraval®, 120 mg/kg i.p.; Rhone-Merrieux, Essex, U.K.). The rats were tracheotomised and ventilated with a Harvard ventilator (70 strokes/min, tidal volume: 8-10 ml/kg, inspiratory oxygen concentration: 30%). Body temperature was maintained at 38±1° C. The right carotid artery was cannulated and connected to a pressure transducer (MLT 844, AD Instruments Ltd, Hastings, UK) to monitor mean arterial blood pressure and heart rate, which were continuously recorded on a data acquisition system (Powerlab® Version 4.0.4, AD Instruments, Hastings, UK) installed on a Dell Dimension 4100 personal computer, throughout the experiment. The right jugular vein was cannulated for the administration of test compound and Evans Blue dye (at the end of the experiment). A parasternal thoracotomy was performed, the heart was suspended in a temporary pericardial cradle and a snare occluder was placed around the left anterior descending coronary artery (LAD). After completion of the surgical procedure the animals were allowed to stabilize for 30 min before LAD ligation. The coronary artery was occluded at time 0 by tightening of the occluder. After 25 min of acute myocardial ischemia, the occluder was released to allow reperfusion for 2 h.
The test compounds were administered as a slow intravenous injection (i.v.) 5 min prior to the onset of reperfusion of the ischemic heart. Following the 2 h reperfusion period, the coronary artery was re-occluded and Evans Blue dye (1 ml of 2% w/v) was injected into the left ventricle, via the right jugular vein cannula, to distinguish between perfused and non-perfused (AAR) sections of the heart. The Evans Blue solution stains the perfused myocardium, while the occluded vascular bed remains uncolored. The animals were sacrificed with an overdose of anesthetic and the heart excised. The heart was sectioned into slices of 3-4 mm thick, the right ventricular wall was removed, and the AAR (pink) was separated from the non-ischemic (blue) area. […]

eNOS = experiment: Western blot analysis for eNOS protein in ischemia-reperfusion rat heart; type: in vivo; settings: ischemia 25 min, reperfusion 2 h, 0.5 mg/kg at 5 min prior to reperfusion, P<0.05 vs vehicle
Protocol: To elucidate the effects of the test compounds on the infarct size caused by regional myocardial ischemia and reperfusion, all animals were randomized into 8 study groups. The first group (Sham) comprised of animals not subjected to regional myocardial ischemia (25 min) followed by reperfusion (2 h) and treated with vehicle (1 ml/kg) 5 minutes prior to the onset of reperfusion. The second group of animals were subjected to regional myocardial ischemia (25 min) followed by reperfusion (2 h) and were treated with vehicle (saline, 1 ml/kg). […]
Hearts were pulverized at −80° C. using liquid nitrogen and a stainless steel pestle and mortar. […] Total protein concentrations were determined using the Bradford method (Bio-Rad, UK). […] Signals were detected using the enhanced chemiluminescence (ECL™) detection system (Cell Signaling Technology, U.S.A.) and autoradiographic film. For quantification of protein expression all blots were reprobed for muscle α-actin expression using 1/2000 dilution of a mouse anti-human actin (muscle antibody (Serotec), followed by incubation with a goat anti-mouse HRP linked secondary antibody ( 1/2000 dilution) (DakoCytomation, Denmark). Densitometry analysis was performed on scanned images (Hewlett Packard Scanjet) and analyzed using Scion Image (Scion Corp, National Institutes of Health, Bethesda, Md.).

[3] = test system: focal cerebral ischemia-reperfusion rats; experiment: Striatal blood flow in focal cerebral ischemia-reperfusion rats (laser Doppler flowmetry); type: in vivo, rat; settings: 40-min common carotid occlusion plus endothelin-1, 24-hrs reperfusion, FIG. 4
[4] = Serum glucose levels in NIDDM animals; type: in vivo, mouse; settings: NIDDM rats, n=5, vehicle 0

With `COc1cc2c(cc1OC)-c1c(OC)c(OC)cc3ccnc(c13)C2=O` [Compound 21] the “Infarcted Volume (X ± SEM mm^3)” value (MCAO rats; IP 1.7 mg/kg × 6, N=10, four days after MCAO) was 133.75 ± 19.57* mm^3, the “% Decrease in total volume of ischemic lesions” value (MCAO rats; IP 1.7 mg/kg × 6, vs Group II vehicle (D.W.)) was 37.72% and the “effects in reducing the areas and volumes of cerebral ischemia lesions as compared with MK-801” value (MCAO rats; comparison in words) was “more significant effects”. For the same compound, the coronary blood flow [1] was “increasing coronary blood flow”.
With `COc1cc2c(cc1OC)-c1c(O)c(OC)cc3c1C(C2)N(C)CC3` (stereo not drawn) [Compound 20] the infarct size [2] was 34±4 % of the area at risk, the “reduction in eNOS protein expression caused by ischemia and reperfusion” value (eNOS) was “significantly reduced” and the coronary blood flow [1] was “increasing coronary blood flow”. For the same compound, the “blood flow in brain (striatal blood flow)” value [3] was “increase in blood flow in brain” and the “serum glucose Percentage of change (%)” value ([4]; 3 mg/kg × 3 days, iv, 90 minutes after last dose vs pre-treatment) was 12 ± 3.5%.
For `CN(C)C(=N)N=C(N)N` [Metformin, reference compound], the “serum glucose Percentage of change (%)” value ([4]; 100 mg/kg × 3 days, po) was 39 ± 1.6%.
Compound `COc1ccc2c(c1)-c1c(OC)ccc3c1C(C2=O)N(C)CC3` (stereo not drawn) [Compound 7, 1,10-dimethoxy-7-oxoaporphine] has a melting point of 162 to 164 °C.
With `C[C@]12N[C@H](Cc3ccccc31)c1ccccc12` [MK-801, reference compound] the “Infarcted Volume (X ± SEM mm^3)” value (MCAO rats; IP 0.3 mg/kg × 6, N=10, four days after MCAO) was 47.34 ± 13.79* mm^3 and the “% Decrease in total volume of ischemic lesions” value (MCAO rats; IP 0.3 mg/kg × 6, vs Group II vehicle (D.W.)) was 77.96%.
Work on `COc1cc2c(cc1O)C(=O)C1c3c(cc(OC(C)C)c(OC)c3-2)CCN1C` (stereo not drawn) [Compound 4, 9-hydroxy-2-isopropyloxy-1,10-dimethoxy-7-oxoaporphine] yielded a melting point of 240 to 242 °C.
In the case of `COc1cc2c(cc1OC(C)C)C(=O)C1c3c(cc(OC(C)C)c(OC)c3-2)CCN1C` (stereo not drawn) [Compound 3, 2,9-Diisopropyloxy-1,10-dimethoxy-7-oxoaporphine], the melting point is reported as 82 to 84 °C.
